The target in data set [1] is T1, SARS-CoV-2 PLpro (Severe acute respiratory syndrome coronavirus 2, UniProt P0DTD1). In words: biochemical.
In the next data set the target is human USP21 (Homo sapiens, UniProt Q9UK80). In words: biochemical.
For data set [2], the target named is T1, SARS-CoV-2 PLpro. As to conditions: read-out: IC50 against PLpro; cited from earlier work.
In data set [3] the test system is SARS-CoV-2. To be noted: cited from earlier work.
Data set [4] addresses T2, SARS-CoV PLpro (Severe acute respiratory syndrome coronavirus, UniProt P0C6X7). The data set can be described thus: biochemical.
In data set [5] the target is T3, MERS-CoV PLpro (Middle East respiratory syndrome-related coronavirus, UniProt K9N7C7). The data set can be described thus: biochemical.
T3 sequence (K9N7C7 1482-1803 limits assumed): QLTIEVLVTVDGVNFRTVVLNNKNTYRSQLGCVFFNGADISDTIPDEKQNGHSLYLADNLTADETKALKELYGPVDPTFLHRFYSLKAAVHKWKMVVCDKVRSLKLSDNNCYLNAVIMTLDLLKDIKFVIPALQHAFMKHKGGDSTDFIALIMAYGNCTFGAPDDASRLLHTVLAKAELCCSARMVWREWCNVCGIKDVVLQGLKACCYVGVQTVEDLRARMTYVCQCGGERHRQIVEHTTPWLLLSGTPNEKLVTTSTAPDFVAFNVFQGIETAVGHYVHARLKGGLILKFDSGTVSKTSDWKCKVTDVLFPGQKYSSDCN
In data set [6] the target is T1, SARS-CoV-2 PLpro. In words: biochemical. The data set is classed as binding.
Data set [7] concerns the target T2, SARS-CoV PLpro. In words: biochemical. The data set is classed as binding.
Data set [8] has as its target T3, MERS-CoV PLpro. The data set can be described thus: biochemical. The format is binding.
The subject of data set [9] is human DUBs (panel of 41 enzymes). The format is biochemical.
Data set [10] deals with SARS-CoV-2. The data set is classed as cell-based.
The nature of data set [11]: in vitro. As to conditions: human, microsomes, pH 7.4.
Data set [12] is described as follows: in vitro. To be noted: mouse, microsomes, pH 7.4.
A further data set in a line: physchem. To be noted: kinetic from dmso stock.
A short description of data set [13]: in vitro. To be noted: human, Caco-2, pH 7.4.
In another data set the test system is Calu-3 cells. To be noted: cited from earlier work.

The values below come from article PMC9039177 (Frontiers in Chemistry, 2022).

SMILES strings stand for the structures. ≈ marks a conversion by molar mass, not a printed value. Where “and” joins values, the source holds several entries; their conditions need not be identical. Equal entries are not always repeated. Entries after “also recorded” stand apart in the source; their conditions may differ. Where two headings read alike, the source gives them in different places. A value given as a limit tells only on which side of the number the result lay.

human USP21, sequence (Q9UK80 whole entry): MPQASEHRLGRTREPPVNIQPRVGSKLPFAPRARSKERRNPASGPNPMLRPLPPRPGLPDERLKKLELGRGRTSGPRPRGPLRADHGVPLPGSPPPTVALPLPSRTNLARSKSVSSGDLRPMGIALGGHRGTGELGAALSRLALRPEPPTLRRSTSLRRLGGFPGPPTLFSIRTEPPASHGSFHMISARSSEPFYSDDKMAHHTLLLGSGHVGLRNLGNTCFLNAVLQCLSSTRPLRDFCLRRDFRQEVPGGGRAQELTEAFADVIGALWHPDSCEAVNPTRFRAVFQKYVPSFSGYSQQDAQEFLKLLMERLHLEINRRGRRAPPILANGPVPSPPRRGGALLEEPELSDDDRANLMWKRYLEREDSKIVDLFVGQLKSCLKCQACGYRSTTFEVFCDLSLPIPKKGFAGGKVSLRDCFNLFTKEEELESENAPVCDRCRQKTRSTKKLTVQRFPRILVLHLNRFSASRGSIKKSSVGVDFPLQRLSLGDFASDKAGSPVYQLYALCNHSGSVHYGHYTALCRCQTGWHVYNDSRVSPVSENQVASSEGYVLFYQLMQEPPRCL

The IC50 is the concentration that gives 50% inhibition. Consider `CC(c1cccc2ccccc12)N1CCC(C(=O)NCc2cccc(F)c2)CC1` (stereo not drawn) [rac3k], for which the IC50 was 1500 nM on SARS-CoV-2 PLpro [1] (PLpro IC50), more than 98000 nM against human USP21 and 600 to 800 nM on SARS-CoV-2 PLpro [2]. In addition, the “decrease of SARS-CoV-2 viral titers (TCID50)” value with SARS-CoV-2 [3] was 2-3 orders of magnitude.

As a reminder, the Kd is the constant that tells how readily two partners part at equilibrium. What is called half-life is how long it takes for the measured level to halve. Higher therefore signals slow loss. Usually microsomal CLint stands for the rate of metabolic loss divided by the concentration. High values mean faster metabolism, low ones greater metabolic stability. Usually kinetic solubility stands for solubility judged after dilution from a stock solution rather than from solid. One may read the Papp A→B as how fast a substance crosses the layer from the apical side. Lower therefore signals poor permeation. The Papp B→A is how fast a substance crosses the layer from the basolateral side. For the compound `COc1cc(CNC(=O)C2CCN([C@H](C)c3cccc4ccccc34)CC2)ccn1` [Compound 5c], the “Mouse plasma protein binding” value was found to be 86.3 % bound. Also, it took 720 nM to reach half-maximal inhibition against SARS-CoV-2 PLpro [1] (IC50, SARS-CoV-2) (IC50). The IC50 at SARS-CoV-2 PLpro [1] (calculated IC50) is 860 nM. The same compound had an IC50 at SARS-CoV PLpro [4] of 500 nM. The compound also came in with an IC50 against MERS-CoV PLpro [5] of more than 98000 nM. The compound also showed a dissociation constant Kd at SARS-CoV-2 PLpro [6] (KD Exp1, SARS-CoV-2 PLpro WT) of 4110 nM. The compound further returned an equilibrium dissociation constant (Kd) on SARS-CoV-2 PLpro [6] (KD Exp2, SARS-CoV-2 PLpro WT) of 2450 nM. The same compound returned a dissociation constant (Kd) on SARS-CoV-2 PLpro [6] (KD Exp3, SARS-CoV-2 PLpro WT) of 2600 nM. The compound also had a Kd at SARS-CoV-2 PLpro [6] (KD, SARS-CoV-2) of 3050 ± 920 nM. On SARS-CoV PLpro [7] (KD Exp1, SARS-CoV), this compound returned a Kd of 833 nM. The compound also registered an equilibrium dissociation constant (Kd) at SARS-CoV PLpro [7] (KD Exp2, SARS-CoV) of 880 nM. On SARS-CoV PLpro [7] (KD Exp3, SARS-CoV), the Kd is 853 nM. In addition, on SARS-CoV PLpro [7] (KD, SARS-CoV), the Kd is 855 nM and 860 nM. In addition, the Kd on MERS-CoV PLpro [8] was more than 20000 nM. Besides, the Kd at MERS-CoV PLpro [8] (read-out: KD Exp1, MERS-CoV) is more than 20000 nM. Moreover, the Kd at MERS-CoV PLpro [8] (read-out: KD Exp3, MERS-CoV) is more than 20000 nM. Further, the “inhibition of human DUBs” value in data set [9] is “did not inhibit any of the human DUBs tested; also recorded: does not notably inhibit any of the tested human DUBs”. Besides, the “reduction of viral titer” value in the data set with SARS-CoV-2 [10] stood at 1 log. The “efflux in Caco-2” value with Caco-2 cell monolayers was “no evidence of efflux”. In addition, in the data set “in vitro [11]”, the half-life was 16 min and the intrinsic metabolic clearance (microsomal CLint) came to 110 µL/min/mg. In the data set “in vitro [12]”, the half-life is 20 min and the microsomal CLint turned out to be 86 µL/min/mg. Moreover, the solubility (kinetic) in “physchem” (pH 2, aqueous buffer) was more than 100 µg/mL. Also, in the data set “physchem” (pH 6.5, aqueous buffer), the kinetic solubility lay in the range of 50 to 100 µg/mL (≈ 124 to 248 µM). In addition, in “in vitro [13]”, the Papp A→B is 53 ×10⁻⁶ cm/s and the Papp B→A worked out at 55 ×10⁻⁶ cm/s.

Consider `COc1cc(CNC(=O)C2CCN(C(C)c3cccc4ccccc34)CC2)ccn1` (stereo not drawn) [rac5c], for which the IC50 against SARS-CoV-2 PLpro [1] (PLpro IC50) is 790 nM; against human USP21, more than 98000 nM; at SARS-CoV-2 PLpro [2], 600 to 800 nM. The “decrease of SARS-CoV-2 viral titers (TCID50)” value with SARS-CoV-2 [3] is on record as 2-3 orders of magnitude. The “cytotoxicity, no evidence up to” value with Calu-3 cells is more than 33 µM.
